Tested on: MCH receptors
Test: MCH receptor activity class (method not given)
Conditions: not given

| class | SMILES |
| --- | --- |
| 1 | Cc1cc(N[C@H]2CC[C@@H](NC(=O)c3cccc(Cl)c3)CC2)nc2ccccc12 [Example 2547, 3-chloro-N-{cis-4-[(4-methylquinolin-2-yl)amino]cyclohexyl}benzamide] |

Same assay, conditions: MCH receptor activity class 1-3 (percent of control at 10^-7 M or IC50)

| SMILES | class |
| --- | --- |
| CC(C)c1ccccc1NC(=S)N[C@H]1CC[C@@H](Nc2nccc(N(C)C)n2)CC1 [compound 2326] | 3 (Class 3 The value of percent of control at 10^−7 M was more than 60% or the value of IC50 was more than 200 nM.) |
| CCc1cccc(C)c1NC(=O)NC[C@H]1CC[C@@H](Nc2cc(N(C)C)c3ccccc3n2)CC1 [compound 2362, N-[(cis-4-{[4-(dimethylamino)quinolin-2-yl]amino}cyclohexyl)methyl]-N′-(2-ethyl-6-methylphenyl)urea] | 2 (Class 2: The value of percent of control at 10^−7 M was from 40% to 60% or the value of IC′50 was from 50 nM to 200 nM.) |
| Cc1cccc(C)c1NC(=O)NC[C@H]1CC[C@@H](Nc2cc(N(C)C)c3ccccc3n2)CC1 [compound 2360] | 3 (Class 3 The value of percent of control at 10^−7 M was more than 60% or the value of IC50 was more than 200 nM.) |

Same assay, conditions: MCH receptor; class by percent of control at 10^-7 M or IC50

| SMILES | class |
| --- | --- |
| CN(C)c1nc(N[C@H]2CC[C@@H](NC(=S)NCCC3=CCCCC3)CC2)nc2c1CCCC2 [compound 2058] | 3 (Class 3 The value of percent of control at 10^−7 M was more than 60% or the value of IC50 was more than 200 nM.) |
| CN(C)c1cc(N[C@H]2CC[C@@H](NC(=O)c3cccc([N+](=O)[O-])c3)CC2)nc2ccccc12 [compound 44, N-(cis-4-{[4-(dimethylamino)quinolin-2-yl]amino}cyclohexyl)-3-nitrobenzamide] | 1 (Class 1: The value of percent of control at 10^−7 M was less than 40% or the value of IC50 was less than 50 nM.) |
| Cc1ccc(C(=O)NC[C@H]2CC[C@@H](Nc3cc(N(C)C)c4ccccc4n3)CC2)cc1 [compound 178] | 3 (Class 3 The value of percent of control at 10^−7 M was more than 60% or the value of IC50 was more than 200 nM.) |
| CN(C)c1cc(N[C@H]2CC[C@@H](CNC(=O)C(c3ccccc3)c3ccccc3)CC2)nc2ccccc12 [compound 159, N-[(cis-4-{[4-(dimethylamino)quinolin-2-yl]amino}cyclohexyl)methyl]-2,2-diphenylacetamide] | 2 (Class 2: The value of percent of control at 10^−7 M was from 40% to 60% or the value of IC′50 was from 50 nM to 200 nM.) |
| CN(C)c1nc(N[C@H]2CC[C@@H](NC(=S)Nc3ccc(Oc4ccc([N+](=O)[O-])cc4)cc3)CC2)nc2c1CCCC2 [compound 2049] | 3 (Class 3 The value of percent of control at 10^−7 M was more than 60% or the value of IC50 was more than 200 nM.) |

Same assay, conditions: activity class 1-3: percent of control at 10^-7 M or IC50

| SMILES | class |
| --- | --- |
| CN(C)c1nc(N[C@H]2CC[C@@H](NC(=O)Nc3ccccc3C(F)(F)F)CC2)nc2c1CCCC2 [compound 1666] | 3 (Class 3 The value of percent of control at 10^−7 M was more than 60% or the value of IC50 was more than 200 nM.) |
| CN(C)c1nc(N[C@H]2CC[C@@H](NC(=O)NC3C[C@H]3c3ccccc3)CC2)nc2c1CCCC2 (stereo partly drawn) [compound 1701] | 3 (Class 3 The value of percent of control at 10^−7 M was more than 60% or the value of IC50 was more than 200 nM.) |

Same assay, conditions: activity class per percent of control at 10^-7 M or IC50

| SMILES | class |
| --- | --- |
| CN(C)c1nc(N[C@H]2CC[C@@H](NC(=O)Cc3ccccc3C(=O)Nc3ccc(Cl)cc3Cl)CC2)nc2c1CCCC2 [compound 999] | 3 (Class 3 The value of percent of control at 10^−7 M was more than 60% or the value of IC50 was more than 200 nM.) |

Same assay, conditions: class 1-3 by percent of control at 10^-7 M or IC50

| SMILES | class |
| --- | --- |
| Cc1onc(-c2ccccc2Cl)c1C(=O)N[C@H]1CC[C@@H](Nc2nc3c(c(N(C)C)n2)CCCC3)CC1 [compound 534] | 2 (Class 2: The value of percent of control at 10^−7 M was from 40% to 60% or the value of IC′50 was from 50 nM to 200 nM.) |

Same assay, conditions: class by percent of control at 10^-7 M or IC50

| SMILES | class |
| --- | --- |
| CN(C)c1ccnc(NC2CCC(NC(=O)OCc3ccc([N+](=O)[O-])cc3)CC2)n1 (stereo not drawn) [compound 274] | 3 (Class 3 The value of percent of control at 10^−7 M was more than 60% or the value of IC50 was more than 200 nM.) |
| Cc1cc(Cl)cc(Cl)c1NC(=S)N[C@H]1CC[C@@H](Nc2nc3c(c(N(C)C)n2)CCCC3)CC1 [compound 1781, N-(2,4-dichloro-6-methylphenyl)-N′-(cis-4-{[4-(dimethylamino)-5,6,7,8-tetrahydroquinazolin-2-yl]amino}cyclohexyl)thiourea] | 1 (Class 1: The value of percent of control at 10^−7 M was less than 40% or the value of IC50 was less than 50 nM.) |
| C[C@@H](c1ccccc1)N(C(=O)c1ccccc1C(=O)N[C@H]1CC[C@@H](Nc2cc(N(C)C)c3ccccc3n2)CC1)[C@@H](C)c1ccccc1 [compound 739] | 3 (Class 3 The value of percent of control at 10^−7 M was more than 60% or the value of IC50 was more than 200 nM.) |
| CSc1ncccc1C(=O)NC[C@H]1CC[C@@H](Nc2nccc(N(C)C)n2)CC1 [compound 387] | 3 (Class 3 The value of percent of control at 10^−7 M was more than 60% or the value of IC50 was more than 200 nM.) |
| COc1ccc(NC(=O)N[C@H]2CC[C@@H](Nc3cc(N(C)C)c4ccccc4n3)CC2)cc1OC1CCCC1 [compound 2163] | 3 (Class 3 The value of percent of control at 10^−7 M was more than 60% or the value of IC50 was more than 200 nM.) |
| CN(C)c1ccnc(N[C@H]2CC[C@@H](NC(=O)C(C)(C)Oc3ccc(Cl)cc3)CC2)n1 [compound 357, 2-(4-chlorophenoxy)-N-(cis-4-{[4-(dimethylamino)pyrimidin-2-yl]amino}cyclohexyl)-2-methylpropanamide] | 2 (Class 2: The value of percent of control at 10^−7 M was from 40% to 60% or the value of IC′50 was from 50 nM to 200 nM.) |
| CN(C)c1ccnc(NC2CCC(NC(=O)OCc3ccccc3)CC2)n1 (stereo not drawn) [compound 273] | 3 (Class 3 The value of percent of control at 10^−7 M was more than 60% or the value of IC50 was more than 200 nM.) |
| CN(C)c1ccnc(N[C@H]2CC[C@@H](CNC(=O)Cc3ccc(F)cc3Cl)CC2)n1 [compound 927] | 3 (Class 3 The value of percent of control at 10^−7 M was more than 60% or the value of IC50 was more than 200 nM.) |
| CN(C)c1ccnc(N[C@H]2CC[C@@H](CNC(=O)Cc3csc4ccccc34)CC2)n1 [compound 948] | 1 (Class 1: The value of percent of control at 10^−7 M was less than 40% or the value of IC50 was less than 50 nM.) |
| COc1ccc2[nH]cc(CN[C@H]3CC[C@@H](Nc4nccc(N(C)C)n4)CC3)c2c1 [compound 1210] | 3 (Class 3 The value of percent of control at 10^−7 M was more than 60% or the value of IC50 was more than 200 nM.) |
| CN(C)c1nc(N[C@H]2CC[C@@H](NC(=O)c3ccccc3Cc3ccccc3)CC2)nc2c1CCCC2 [compound 961] | 2 (Class 2: The value of percent of control at 10^−7 M was from 40% to 60% or the value of IC′50 was from 50 nM to 200 nM.) |
| CN(C)c1ccnc(N[C@H]2CC[C@@H](NC(=O)c3ccc4nonc4c3)CC2)n1 [compound 241, N-(cis-4-{[4-(dimethylamino)pyrimidin-2-yl]amino}cyclohexyl)-2,1,3-benzoxadiazole-5-carboxamide] | 1 (Class 1: The value of percent of control at 10^−7 M was less than 40% or the value of IC50 was less than 50 nM.) |
| CSc1ccccc1NC(=O)N[C@H]1CC[C@@H](Nc2nc3c(c(N(C)C)n2)CCCC3)CC1 [compound 1845] | 3 (Class 3 The value of percent of control at 10^−7 M was more than 60% or the value of IC50 was more than 200 nM.) |
| CN(C)c1cc(N[C@H]2CC[C@@H](NC(=S)Nc3cccc4ccccc34)CC2)nc2ccccc12 [compound 2174] | 3 (Class 3 The value of percent of control at 10^−7 M was more than 60% or the value of IC50 was more than 200 nM.) |
| COc1cccc(CN[C@H]2CC[C@@H](Nc3nccc(N(C)C)n3)CC2)c1 [compound 1224] | 3 (Class 3 The value of percent of control at 10^−7 M was more than 60% or the value of IC50 was more than 200 nM.) |
| CN(C)c1ccnc(N[C@H]2CC[C@@H](NC(=O)c3ccc([N+](=O)[O-])cc3Cl)CC2)n1 [compound 320] | 3 (Class 3 The value of percent of control at 10^−7 M was more than 60% or the value of IC50 was more than 200 nM.) |
| CN(C)c1cc(N[C@H]2CC[C@@H](CNC(=O)c3ccc(Br)s3)CC2)nc2ccccc12 [compound 788] | 3 (Class 3 The value of percent of control at 10^−7 M was more than 60% or the value of IC50 was more than 200 nM.) |
| Cc1ccc(-c2ccc(C(=O)N[C@H]3CC[C@@H](Nc4cc(N(C)C)c5ccccc5n4)CC3)o2)c([N+](=O)[O-])c1 [compound 687] | 3 (Class 3 The value of percent of control at 10^−7 M was more than 60% or the value of IC50 was more than 200 nM.) |

Same assay, conditions: class by percent of control at 10^−7 M or IC50

| SMILES | class |
| --- | --- |
| Cc1cc(N(C)C)nc(N[C@H]2CC[C@@H](CNC(=O)c3ccc(C(F)(F)F)c(F)c3)CC2)n1 [compound 2765] | 2 (Class 2: The value of percent of control at 10^−7 M was from 40% to 60% or the value of IC′50 was from 50 nM to 200 nM.) |
| COc1cccc([C@@H](C)NC(=O)[C@H]2CC[C@@H](Nc3nc(C)cc(N(C)C)n3)CC2)c1 [compound 2796, cis-4-{[4-(dimethylamino)-6-methylpyrimidin-2-yl]amino}-N-[(1R)-1-(3-methoxyphenyl)ethyl]cyclohexanecarboxamide] | 2 (Class 2: The value of percent of control at 10^−7 M was from 40% to 60% or the value of IC′50 was from 50 nM to 200 nM.) |
| Cc1ccc(C(=O)NC[C@H]2CC[C@@H](Nc3ncc(C)c(N(C)C)n3)CC2)cc1F [compound 2695, N-[(cis-4-{[4-(dimethylamino)-5-methylpyrimidin-2-yl]amino}cyclohexyl)methyl]-3-fluoro-4-methylbenzamide] | 2 (Class 2: The value of percent of control at 10^−7 M was from 40% to 60% or the value of IC′50 was from 50 nM to 200 nM.) |
| Cc1cnc(N[C@H]2CC[C@@H](CNC(=O)c3ccc(-c4ccccc4)cc3)CC2)nc1N(C)C [compound 2709] | 3 (Class 3 The value of percent of control at 10^−7 M was more than 60% or the value of IC50 was more than 200 nM.) |
| Cc1cnc(N[C@H]2CC[C@@H](CNC(=O)c3ccccc3)CC2)nc1N(C)C [compound 2690, N-[(cis-4-{[4-(dimethylamino)-5-methylpyrimidin-2-yl]amino}cyclohexyl)methyl]benzamide] | 3 (Class 3 The value of percent of control at 10^−7 M was more than 60% or the value of IC50 was more than 200 nM.) |
